Reference: ChEMBL document CHEMBL4007427, “Inhibition of the Aldehyde Dehydrogenase 1/2 Family by Psoralen and Coumarin Derivatives” (J Med Chem, 2017)
pIC50, pKi: −log10 of the molar value.

Experiments:
[1] = target: T1, Retinaldehyde dehydrogenase 3 (Homo sapiens, UniProt P47895)
T1 sequence (P47895 whole entry): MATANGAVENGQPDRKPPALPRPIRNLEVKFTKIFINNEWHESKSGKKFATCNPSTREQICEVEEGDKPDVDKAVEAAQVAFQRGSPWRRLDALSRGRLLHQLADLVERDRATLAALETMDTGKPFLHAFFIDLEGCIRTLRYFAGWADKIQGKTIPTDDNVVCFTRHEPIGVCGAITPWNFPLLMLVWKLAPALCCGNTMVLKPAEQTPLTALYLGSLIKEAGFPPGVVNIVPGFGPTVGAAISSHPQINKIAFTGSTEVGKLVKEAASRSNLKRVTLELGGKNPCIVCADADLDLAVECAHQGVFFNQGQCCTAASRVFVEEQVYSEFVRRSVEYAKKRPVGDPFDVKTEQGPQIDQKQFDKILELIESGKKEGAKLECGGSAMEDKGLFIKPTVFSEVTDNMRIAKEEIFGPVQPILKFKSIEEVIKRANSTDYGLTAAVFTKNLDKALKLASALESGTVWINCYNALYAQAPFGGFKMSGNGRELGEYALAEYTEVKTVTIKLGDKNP
Description: Inhibition of full length recombinant human ALDH1A3 expressed in Escherichia coli BL21(DE3) assessed as reduction in dehydrogenase activity by measuring NAD(P)H level preincubated for 2 mins followed by addition of propionaldehyde as substrate in presence of NAD+ by spectrophotometric method

[2] = target: T2, Aldehyde dehydrogenase 1A1 (Homo sapiens) (UniProt P00352); assay: Inhibition of full length recombinant human ALDH1A1 expressed in Escherichia coli BL21(DE3) assessed as remaining dehydrogenase activity by measuring NAD(P)H level at 10 uM preincubated for 2 mins followed by addition of propionaldehyde as substrate in presence of NAD+ by spectrophotometric method
T2 sequence (whole entry): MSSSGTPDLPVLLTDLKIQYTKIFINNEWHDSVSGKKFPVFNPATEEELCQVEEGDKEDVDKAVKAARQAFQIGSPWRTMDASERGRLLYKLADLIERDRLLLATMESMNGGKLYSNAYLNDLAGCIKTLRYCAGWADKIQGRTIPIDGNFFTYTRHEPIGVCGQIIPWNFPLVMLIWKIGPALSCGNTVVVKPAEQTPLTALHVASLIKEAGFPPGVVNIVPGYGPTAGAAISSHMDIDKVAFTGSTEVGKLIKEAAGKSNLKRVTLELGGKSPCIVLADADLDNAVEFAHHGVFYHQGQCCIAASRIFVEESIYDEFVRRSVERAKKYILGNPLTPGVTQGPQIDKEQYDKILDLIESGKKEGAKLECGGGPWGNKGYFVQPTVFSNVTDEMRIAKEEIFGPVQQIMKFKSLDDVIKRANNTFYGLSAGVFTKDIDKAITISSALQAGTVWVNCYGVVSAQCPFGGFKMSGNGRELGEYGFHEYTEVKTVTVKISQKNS

[3] = Lipophilicity, log P of the compound; assay type: physicochemical; conditions: octanol/water
[4] = target: T3, Aldehyde dehydrogenase 1A1 (Homo sapiens, UniProt P00352)
T3 sequence (P00352 whole entry): T2 sequence (whole entry)
Description: (§1) Inhibition of full length recombinant human ALDH1A1 expressed in Escherichia coli BL21(DE3) assessed as reduction in dehydrogenase activity by measuring NAD(P)H level preincubated for 2 mins followed by addition of propionaldehyde as substrate in presence of NAD+ by spectrophotometric method

[5] = target: T4, Cytosolic 10-formyltetrahydrofolate dehydrogenase (Rattus norvegicus, UniProt P28037); assay: Inhibition of rat ALDH1L1 assessed as reduction in dehydrogenase activity by measuring NAD(P)H level preincubated for 2 mins followed by addition of propionaldehyde as substrate in presence of NAD+ by spectrophotometric method
T4 sequence (P28037 whole entry): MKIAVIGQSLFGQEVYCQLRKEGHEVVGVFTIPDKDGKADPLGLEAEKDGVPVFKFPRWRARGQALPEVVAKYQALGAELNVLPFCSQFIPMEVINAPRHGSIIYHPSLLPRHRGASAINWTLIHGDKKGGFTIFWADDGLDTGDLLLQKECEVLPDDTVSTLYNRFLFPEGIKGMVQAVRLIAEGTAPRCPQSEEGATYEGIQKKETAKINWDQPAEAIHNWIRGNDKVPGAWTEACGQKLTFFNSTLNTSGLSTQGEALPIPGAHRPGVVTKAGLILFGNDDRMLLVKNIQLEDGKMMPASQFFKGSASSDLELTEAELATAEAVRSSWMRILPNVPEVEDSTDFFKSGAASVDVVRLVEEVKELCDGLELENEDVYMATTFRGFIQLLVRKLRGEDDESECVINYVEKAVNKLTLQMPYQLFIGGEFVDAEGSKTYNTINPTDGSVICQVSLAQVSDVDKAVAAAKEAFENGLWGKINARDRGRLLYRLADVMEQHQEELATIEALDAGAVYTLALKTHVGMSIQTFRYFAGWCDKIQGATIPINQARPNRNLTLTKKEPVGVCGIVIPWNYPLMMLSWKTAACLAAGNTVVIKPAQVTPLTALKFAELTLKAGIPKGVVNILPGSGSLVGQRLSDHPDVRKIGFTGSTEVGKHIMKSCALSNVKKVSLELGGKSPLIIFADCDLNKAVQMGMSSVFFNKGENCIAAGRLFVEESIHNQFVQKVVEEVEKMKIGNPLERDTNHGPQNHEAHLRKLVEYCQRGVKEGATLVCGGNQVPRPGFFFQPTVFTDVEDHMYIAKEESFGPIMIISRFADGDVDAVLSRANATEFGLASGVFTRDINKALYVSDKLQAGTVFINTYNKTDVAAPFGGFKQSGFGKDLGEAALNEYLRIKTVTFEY

[6] = target: T5, Aldehyde dehydrogenase, mitochondrial (Homo sapiens, UniProt P05091)
T5 sequence (P05091 whole entry): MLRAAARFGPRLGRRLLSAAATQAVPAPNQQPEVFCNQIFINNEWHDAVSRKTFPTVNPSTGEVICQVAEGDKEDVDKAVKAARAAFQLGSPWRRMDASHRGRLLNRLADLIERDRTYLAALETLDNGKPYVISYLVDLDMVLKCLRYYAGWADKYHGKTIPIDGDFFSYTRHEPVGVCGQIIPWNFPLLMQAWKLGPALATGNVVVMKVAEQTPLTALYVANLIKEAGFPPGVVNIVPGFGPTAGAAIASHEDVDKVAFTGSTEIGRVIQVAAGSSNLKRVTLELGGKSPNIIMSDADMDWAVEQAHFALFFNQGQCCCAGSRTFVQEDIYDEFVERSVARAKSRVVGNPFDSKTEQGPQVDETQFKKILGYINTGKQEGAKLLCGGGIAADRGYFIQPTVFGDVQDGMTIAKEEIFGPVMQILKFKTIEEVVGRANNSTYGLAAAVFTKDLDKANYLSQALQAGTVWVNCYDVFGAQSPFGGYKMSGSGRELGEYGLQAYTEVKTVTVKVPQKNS
Description: Competitive inhibition of full length recombinant human ALDH2 expressed in Escherichia coli assessed as reduction in dehydrogenase activity using propionaldehyde as substrate in presence of varying levels NAD+ by Lineweaver-Burk plot analysis

[7] = target: T3, Aldehyde dehydrogenase 1A1; remark: listed apart in the source
Description: as §1

SMILES | pIC50 [1] | Activity [2] [%] | logP [3] | IC50 [4] | IC50 [5] | pKi [6] | pIC50 [7]
Cc1oc2cc3oc(=O)c(C)c(C)c3cc2c1C | 6.57 | 90.5 | 4.39 | Not Active | Not Active |  | 
Cc1oc2cc3oc(=O)c(CCC(=O)N4CCCCC4)c(C)c3cc2c1C | 4.85 | 8.69 | 4.06 |  |  | 5.96 | 6.89
CCCc1c(C)c2cc3c(C)c(C)oc3cc2oc1=O | 6.40 | 36.3 | 4.92 |  | Not Active | 7.72 | 6.66
CCCc1c(C)c2cc3c(C)coc3cc2oc1=O | 5.96 | 48.6 | 4.47 |  | Not Active |  | 6.47
C/C(=N\O)c1cc2cc(Br)ccc2oc1=O |  | 96 | 2.1 | Not Active |  | 5.62 | 
COC(=O)C(C)Oc1ccc2c(C)cc(=O)oc2c1 (configuration not stated) |  | 84.8 | 1.9 | Not Active | Not Active | 6.51 | 
CCCc1cc(=O)oc2cc3oc(C)c(C)c3cc12 |  | 74.1 | 4.47 | Not Active |  |  | 
Cc1oc2cc3oc(=O)c4c(c3cc2c1C)CCC4 | 6.77 | 50.8 | 4.26 |  |  |  | 6.77
